# Assay results: patent US6482413B1, “Vitamin B12 —biodegradable micro particulate conjugate carrier systems for peroral delivery of drugs, therapeutic peptides/proteins and vaccines” (Council of Scientific and Industrial Research, priority 2001, dated 2002)
# Experiments:
# VB12 transport system = conditions: oral uptake capacity; cited from earlier work
# IF = IF (Homo sapiens, UniProt P27352); conditions: among b, d and e monocarboxylate isomers; cited from earlier work
# [1] = test system: Streptozotocin induced diabetic rats; experiment: Antidiabetic activity of orally administered insulin loaded delivery systems; assay type: in vivo, rat
# Protocol: The pharmacological availability was assessed by the above results.
# Various insulin loaded drug delivery systems prepared were tested for antidiabetic activity in Streptozotocin induced diabetic rats and the results are briefed in summary section. These insulin drug delivery systems are orally administered to diabetic rats (n=number of animals). At various time intervals after feeding the rats were bled and their blood glucose levels determined.
# intestinal enzymes = conditions: FIG. 3; same experimental conditions for free and entrapped insulin
# Chain of IF (P27352 19-417): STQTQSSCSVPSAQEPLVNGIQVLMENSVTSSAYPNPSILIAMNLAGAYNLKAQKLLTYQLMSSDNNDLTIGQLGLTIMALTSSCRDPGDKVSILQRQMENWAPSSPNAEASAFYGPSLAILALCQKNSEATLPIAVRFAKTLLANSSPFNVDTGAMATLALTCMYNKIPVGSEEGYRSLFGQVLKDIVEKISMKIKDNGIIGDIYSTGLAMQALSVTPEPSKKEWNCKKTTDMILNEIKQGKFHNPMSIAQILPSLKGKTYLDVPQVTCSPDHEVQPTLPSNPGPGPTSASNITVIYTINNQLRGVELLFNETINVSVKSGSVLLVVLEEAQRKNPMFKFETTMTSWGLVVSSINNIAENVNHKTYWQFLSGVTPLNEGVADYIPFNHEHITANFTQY
substance,measurement,setting,value
Vitamin B12 [VB12],uptake of VB12,VB12 transport system,1 nmol/dose
‘e’ monocarboxylate of VB12 [Conjugate 1b],affinity for IF,IF,highest affinity
insulin,"activity at 3rd, 4th, 5th and 6th hours",[1],no activity
same,Degradation of insulin by digestive enzymes,intestinal enzymes,completely degraded
